18 molecules from US8440654B2, “Thieno- and furo-pyrimidine modulators of the histamine H4 receptor” (Janssen Pharmaceutica NV, priority 2007, dated 2013) can be followed below.

The target of this assay is T1, human histamine H4 receptor (Homo sapiens, UniProt Q9H3N8).
T1 construct: expressed in transfected cells; host or cells: SK-N-MC cells or COS7 cells, transiently transfected with pH4R; membrane preparation
Briefly: Binding Assay on Recombinant Human Histamine H4 Receptor. As to conditions: competition binding with 3H-histamine, membranes of SK-N-MC or COS7 cells transfected with human H4R; average of results obtained. The procedure: Biological Methods: Binding Assay on Recombinant Human Histamine H4 Receptor.
SK-N-MC cells or COS7 cells were transiently transfected with pH4R and grown in 150 cm^2 tissue culture dishes. Cells were washed with saline solution, scraped with a cell scraper and collected by centrifugation (1000 rpm, 5 min). Cell membranes were prepared by homogenization of the cell pellet in 20 mM Tris-HCl with a polytron tissue homogenizer for 10 sec at high speed. Homogenate was centrifuged at 1000 rpm for 5 min at 4° C. The supernatant was then collected and centrifuged at 20,000×g for 25 min at 4° C. The final pellet was resuspended in 50 mM Tris-HCl. Cell membranes were incubated with ^3H-histamine (5-70 nM) in the presence or absence of excess histamine (10,000 nM). Incubation occurred at room temperature for 45 min. Membranes were harvested by rapid filtration over Whatman GF/C filters and washed 4 times with ice-cold 50 mM Tris HCl. Filters were then dried, mixed with scintillant and counted for radioactivity. SK-N-MC or COS7 cells expressing human histamine H4 receptor were used to measure the affinity of binding of other compounds and their ability to displace ^3H-ligand binding by incubating the above-described reaction in the presence of various concentrations of inhibitor or compound to be tested. For competition binding studies using ^3H-histamine, K values were calculated, based on an experimentally determined KD value of 5 nM and a ligand concentration of 5 nM, according to Y.-C.

Structures can show the parent of a compound that is named as a salt.

T1 sequence (Q9H3N8 whole entry): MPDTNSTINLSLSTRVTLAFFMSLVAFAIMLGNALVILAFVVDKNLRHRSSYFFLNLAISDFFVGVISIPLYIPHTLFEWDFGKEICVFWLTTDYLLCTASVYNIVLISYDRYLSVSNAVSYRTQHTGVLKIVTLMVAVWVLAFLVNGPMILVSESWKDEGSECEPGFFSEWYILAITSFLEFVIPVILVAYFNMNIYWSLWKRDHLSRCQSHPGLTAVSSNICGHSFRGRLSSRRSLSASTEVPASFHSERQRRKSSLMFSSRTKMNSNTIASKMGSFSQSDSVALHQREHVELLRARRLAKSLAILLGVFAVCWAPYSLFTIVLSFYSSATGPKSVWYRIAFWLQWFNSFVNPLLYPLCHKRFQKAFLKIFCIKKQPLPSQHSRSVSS

Usually Ki stands for the equilibrium dissociation constant of an inhibitor or competing ligand from its target. On to `NCCNc1nc(N)nc2c3c(sc12)CCC(F)(F)C3` [Example 128, N^4-(2-Aminoethyl)-8,8-difluoro-6,7,8,9-tetrahydro[1]benzothieno[3,2-d]pyrimidine-2,4-diamine hydrochloride], for which the Ki turned out to be 150 nM.
Under `Nc1nc(N2CCN3CCCC3C2)c2sc3c(c2n1)CCCC3` (stereo not drawn) [Example 52, 4-(Hexahydropyrrolo[1,2-a]pyrazin-2(1H)-yl-6,7,8,9-tetrahydro[1]benzothieno[3,2-d]pyrimidin-2-aminetrifluoroacetic acid salt] stands 67 nM; under `CC1CCc2sc3c(N4CCN(C)CC4)nc(N)nc3c2C1` (stereo not drawn) [Example 43, 8-Methyl-4-(4-methyl-piperazin-1-yl)-6,7,8,9-tetrahydro[1]benzo-thieno[3,2-d]pyrimidin-2-amine trifluoroacetic acid salt], 7 nM; under `Nc1nc(N2CC(N)C2)c2sc3c(c2n1)CCCC3` [Example 42, 4-(3-Aminoazetidin-1-yl)-6,7,8,9-tetrahydro[1]benzo-thieno[3,2-d]pyrimidin-2-amine trifluoroacetic acid salt], 467 nM.
The value for `CN(CCN)c1nc(N)nc2c3c(oc12)CCC(F)(F)C3` [Example 125, N^4-(2-Aminoethyl)-8,8-difluoro-N^4-methyl-6,7,8,9-tetrahydro[1]benzofuro[3,2-d]pyrimidine-2,4-diamine (free amine)] was 150 nM; that for `c1nc(N2CCNCC2)c2sc3c(c2n1)CCCC3` [Example 11, 4-piperazin-1-yl-6,7,8,9-tetrahydro-benzo[4,5]thieno[3,2-d]pyrimidine] was 454 nM; that for `Cc1csc2c(N3CCN(C)CC3)nc(N)nc12` [Example 13, 7-Methyl-4-(4-methyl-piperazin-1-yl)thieno-amine trifluoroacetic acid salt] was 574 nM.
The value for `Nc1nc(N2C[C@H]3CCN[C@H]3C2)c2sc3c(c2n1)CCCC3` [Example 4, 4-[(3aR,6aR)-Hexahydropyrrolo[3,4-b]pyrrol-5(1H)-yl]-6,7,8,9-tetrahydro[1]benzothieno[3,2-d]pyrimidin-2-amine] was 21 nM; that for `CN[C@@H]1CCN(c2nc(N)nc3c4c(sc23)CCC(F)(F)C4)C1` [Example 59, 8,8-Difluoro-4-[(3R)-3-(methylamino)pyrrolidin-1-yl]-6,7,8,9-tetrahydro[1]benzothieno[3,2-d]pyrimidin-2-amine trifluoroacetic acid salt] was 9 nM.
For the molecule `Nc1nc(N2CCCNCC2)c2sc3c(c2n1)CCCC3` [Example 37, 4-(1,4-Diazepan-1-yl)-6,7,8,9-tetrahydro[1]benzo-thieno[3,2-d]pyrimidin-2-amine hydrochloric acid salt], the Ki was 15 nM.
Under `Nc1nc(N2CC(N)C2)c2sc3c(c2n1)CC(F)(F)CC3` [Example 120, 4-(3-Aminoazetidin-1-yl)-8,8-difluoro-6,7,8,9-tetrahydro[1]benzothieno[3,2-d]pyrimidin-2-amine (free amine)] stands 170 nM; under `CN1CCN(c2nc(N)nc3cc(C(C)(C)C)sc23)CC1` [Example 15, 6-tert-Butyl-4-(4-methyl-piperazin-1-yl)thieno[3,2-d]pyrimidin-2-amine trifluoroacetic acid salt], 286 nM; under `CN1CCN(c2nc(N)nc3ccsc23)CC1` [Example 1, 4-(4-Methyl-piperazin-1-yl)-thieno[3,2-d]pyrimidin-2-ylamine], 503 nM.
Under `CC(C)N1CCN(c2nc(N)nc3c4c(sc23)CCCC4)CC1` [Example 50, 4-[4-(1-Methylethyl)piper-azin-1-yl]-6,7,8,9-tetrahy-dro[1]benzothieno[3,2-d]pyrimidin-2-amine trifluoroacetic acid salt] stands 647 nM; under `Nc1nc(N2CCNCC2)c2sc3c(c2n1)CCCC3` [Example 3, 4-piperazin-1-yl-6,7,8,9-tetrahydro-benzo[4,5]thieno[3,2-d]pyrimidin-2-ylamine], 23 nM.
The value for `Nc1nc(N2CC(N)C2)c2oc3c(c2n1)CC(F)(F)CC3` [Example 127, 4-(3-Aminoazetidin-1-yl)-8,8-difluoro-6,7,8,9-tetrahydro[1]benzofuro[3,2-d]pyrimidin-2-amine hydrochloride] was 64 nM.
As to `CCN1CCN(c2nc(N)nc3c4c(sc23)CCCC4)CC1` [Example 51, 4-(4-Ethylpiperazin-1-yl)-6,7,8,9-tetrahydro[1]benzo-thieno[3,2-d]pyrimidin-2-amine trifluoroacetic acid salt], the Ki came out at 205 nM.
The value for `Nc1nc(N2C[C@H]3CCCN[C@H]3C2)c2oc3c(c2n1)CCCC3` [Example 20, 4-[(4aR,7aR)-Octahydro-6H-pyrrolo[3,4-b]pyridin-6-yl]-6,7,8,9-tetra-hydro[1]benzofuro[3,2-d]pyrimidin-2-amine trifluoroacetic acid salt] was 5 nM.
